Experimental data reported in the supplement of paper PMC6045584.
± gives the standard deviation of the averaged measurements.

Experiments:
Assay in all cases: surviving fraction relative to DMSO-only wells; higher = less growth inhibition
Conditions in all cases: exposure time: 5 days
XAV-939 = compound: Oc1nc(-c2ccc(C(F)(F)F)cc2)nc2c1CSCC2 [XAV-939]
Procedure, shortened: (§1)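 Tumour cell lines in log phase were plated in 384-well plates at 250–500 cells per well, then, after 24 hours, exposed continuously for five days to inhibitors at 0.5, 1, 5, 10, 50, 100, 500 and 1000 nM. Viability came from CellTiter-Glo luminescence, and surviving fraction is that signal normalised to the median of DMSO-only wells. Plates were read after 10 minutes at room temperature, and each line, screened three times, was kept only when replicate Pearson r was >0.7 and median Z' was >0.3.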

FORETINIB = compound: COc1cc2c(Oc3ccc(NC(=O)C4(C(=O)Nc5ccc(F)cc5)CC4)cc3F)ccnc2cc1OCCCN1CCOCC1 [FORETINIB]
Procedure, shortened: as §1

DASATINIB = compound: Cc1nc(Nc2ncc(C(=O)Nc3c(C)cccc3Cl)s2)cc(N2CCN(CCO)CC2)n1 [DASATINIB]
Procedure, shortened: as §1

[1] = compound: CCn1c(C(=O)N(C2CC2)C2CC2)cc2c3c(ncn3C)c(Nc3cc(C)n(C)n3)nc21
Procedure, shortened: as §1

[2] = compound: CNCc1ccc(-c2[nH]c3cc(F)cc4c3c2CCNC4=O)cc1
Procedure, shortened: as §1

CRIZOTINIB = compound: C[C@@H](Oc1cc(-c2cnn(C3CCNCC3)c2)cnc1N)c1c(Cl)ccc(F)c1Cl [CRIZOTINIB]
Procedure, shortened: as §1

ABIRATERONE = compound: C[C@]12CC[C@H](O)CC1=CC[C@@H]1[C@@H]2CC[C@]2(C)C(c3cccnc3)=CC[C@@H]12 [ABIRATERONE]
Procedure, shortened: as §1

Question: What does the source list for HS57T BREAST?
Answer: surviving fraction (XAV-939; 0.5 nM): 1.07 ± 0.023; surviving fraction (XAV-939; 1 nM): 1.11 ± 0.083; surviving fraction (XAV-939; 5 nM): 1.06 ± 0.039; surviving fraction (XAV-939; 10 nM): 1.02 ± 0.057; surviving fraction (XAV-939; 50 nM): 1.09 ± 0.046; surviving fraction (XAV-939; 100 nM): 1.054 ± 0.0092; surviving fraction (XAV-939; 500 nM): 0.889 ± 0.017; surviving fraction (XAV-939; 1000 nM): 0.843 ± 0.075; surviving fraction (FORETINIB; 0.5 nM): 1.05 ± 0.066; surviving fraction (FORETINIB; 1 nM): 1.09 ± 0.08; surviving fraction (FORETINIB; 5 nM): 1.15 ± 0.03; surviving fraction (FORETINIB; 10 nM): 1.07 ± 0.045; surviving fraction (FORETINIB; 50 nM): 1.06 ± 0.06; surviving fraction (FORETINIB; 100 nM): 1.02 ± 0.083; surviving fraction (FORETINIB; 500 nM): 0.515 ± 0.039; surviving fraction (FORETINIB; 1000 nM): 0.47 ± 0.024; surviving fraction (DASATINIB; 0.5 nM): 0.852 ± 0.056; surviving fraction (DASATINIB; 1 nM): 0.814 ± 0.024; surviving fraction (DASATINIB; 5 nM): 0.832 ± 0.033; surviving fraction (DASATINIB; 10 nM): 0.788 ± 0.076; surviving fraction (DASATINIB; 50 nM): 0.423 ± 0.022; surviving fraction (DASATINIB; 100 nM): 0.37 ± 0.029; surviving fraction (DASATINIB; 500 nM): 0.17 ± 0.016; surviving fraction (DASATINIB; 1000 nM): 0.142 ± 0.0095; surviving fraction ([1]; 0.5 nM): 0.959 ± 0.063; surviving fraction ([1]; 1 nM): 0.892 ± 0.0062; surviving fraction ([1]; 5 nM): 1 ± 0.045; surviving fraction ([1]; 10 nM): 0.967 ± 0.037; surviving fraction ([1]; 50 nM): 1.08 ± 0.055; surviving fraction ([1]; 100 nM): 1.01 ± 0.017; surviving fraction ([1]; 500 nM): 0.934 ± 0.049; surviving fraction ([1]; 1000 nM): 0.917 ± 0.055; surviving fraction ([2]; 0.5 nM): 0.972 ± 0.021; surviving fraction ([2]; 1 nM): 0.994 ± 0.063; surviving fraction ([2]; 5 nM): 1.03 ± 0.09; surviving fraction ([2]; 10 nM): 0.979 ± 0.055; surviving fraction ([2]; 50 nM): 0.929 ± 0.077; surviving fraction ([2]; 100 nM): 0.971 ± 0.06; surviving fraction ([2]; 500 nM): 0.881 ± 0.03; surviving fraction ([2]; 1000 nM): 0.865 ± 0.038; surviving fraction (CRIZOTINIB; 0.5 nM): 1 ± 0.02; surviving fraction (CRIZOTINIB; 1 nM): 1.09 ± 0.056; surviving fraction (CRIZOTINIB; 5 nM): 1.14 ± 0.026; surviving fraction (CRIZOTINIB; 10 nM): 1.07 ± 0.025; surviving fraction (CRIZOTINIB; 500 nM): 0.676 ± 0.011; surviving fraction (CRIZOTINIB; 1000 nM): 0.56 ± 0.046; surviving fraction (ABIRATERONE; 0.5 nM): 1.06 ± 0.023; surviving fraction (ABIRATERONE; 1 nM): 1.16 ± 0.059; surviving fraction (ABIRATERONE; 5 nM): 1.12 ± 0.038; surviving fraction (ABIRATERONE; 10 nM): 1.1 ± 0.03; surviving fraction (ABIRATERONE; 50 nM): 1.24 ± 0.06; surviving fraction (ABIRATERONE; 100 nM): 1.17 ± 0.071; surviving fraction (ABIRATERONE; 500 nM): 1.08 ± 0.031; surviving fraction (ABIRATERONE; 1000 nM): 1.04 ± 0.1
